In patent publication US10189836B2, “Therapeutic compounds, compositions and methods of use thereof” (Genentech, Inc., priority 2015, dated 2019):
pKi: −log10 of the molar value.

Key:
[1] = target: isolated recombinant JAK1 kinase domain (Homo sapiens (Human), UniProt P23458); assay: JAK1 enzyme assay (Caliper LabChip, Ki); format: biochemical; conditions: isolated recombinant JAK1 kinase domain, 1.5 nM enzyme, ATP 25 μM
[2] = target: isolated recombinant JAK2 kinase domain (Homo sapiens (Human), UniProt O60674); assay: JAK2 enzyme assay (Caliper LabChip, Ki); format: biochemical; conditions: isolated recombinant JAK2 kinase domain, 0.2 nM enzyme, ATP 25 μM
isolated recombinant JAK2 kinase domain, sequence (O60674 849-1124): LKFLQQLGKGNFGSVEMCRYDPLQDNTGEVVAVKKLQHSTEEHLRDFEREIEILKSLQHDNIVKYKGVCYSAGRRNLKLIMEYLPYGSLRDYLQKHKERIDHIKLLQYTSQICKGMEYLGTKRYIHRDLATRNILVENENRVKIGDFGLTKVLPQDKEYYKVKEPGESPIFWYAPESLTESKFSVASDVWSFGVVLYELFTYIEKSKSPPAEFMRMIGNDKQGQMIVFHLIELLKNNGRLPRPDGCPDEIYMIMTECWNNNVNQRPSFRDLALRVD

isolated recombinant JAK1 kinase domain, sequence (P23458 875-1153): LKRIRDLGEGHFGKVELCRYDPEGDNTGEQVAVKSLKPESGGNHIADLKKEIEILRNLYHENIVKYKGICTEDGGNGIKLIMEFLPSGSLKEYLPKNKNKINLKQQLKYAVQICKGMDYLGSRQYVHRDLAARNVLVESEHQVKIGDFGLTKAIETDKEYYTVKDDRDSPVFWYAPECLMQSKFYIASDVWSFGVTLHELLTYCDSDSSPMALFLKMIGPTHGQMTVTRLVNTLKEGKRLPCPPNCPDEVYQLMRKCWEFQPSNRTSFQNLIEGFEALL

Compound | pKi [1] | pKi [2]
CC(C(=O)N1CCN(C)CC1)n1cc(Nc2nc3c(N4CC5CCC(C4)N5C(=O)C4CC(C(F)(F)F)C4)cccn3n2)cn1 (centres unmarked) [Example 125, 1-(4-methylpiperazin-1-yl)-2-[4-[[8-[8-(3-(trifluoromethyl)-cyclobutanecarbonyl]-3,8-diazabicyclo[3.2.1]octan-3-yl]-[1,2,4]triazolo[1,5-a]pyridin-2-yl]amino]pyrazol-1-yl]propan-1-one] | 9.22 | 9.40
CC(C(=O)N1CCN(C)CC1)n1cc(Nc2nc3c(N4CC5CCC(C4)N5C(=O)C4CC(C(F)(F)F)C4)cccn3n2)cn1 (centres unmarked) [Example 126, 1-(4-methylpiperazin-1-yl)-2-[4-[[8-[8-(3-(trifluoromethyl)-cyclobutanecarbonyl]-3,8-diazabicyclo[3.2.1]octan-3-yl]-[1,2,4]triazolo[1,5-a]pyridin-2-yl]amino]pyrazol-1-yl]propan-1-one] | 8.60 | 8.80
CN1CCN(C(=O)Cn2cc(Nc3nc4c(N5C[C@H]6CC[C@@H](C5)[C@H]6N(C)CCC(F)(F)F)cccn4n3)cn2)CC1 [Example 127, 1-(4-methylpiperazin-1-yl)-2-[4-[[8-[(1S,5R)-8-[methyl(3,3,3-trifluoropropyl)amino]-3-azabicyclo[3.2.1]octan-3-yl]-[1,2,4]triazolo[1,5-a]pyridin-2-yl]amino]pyrazol-1-yl]ethanone] | 8.34 | 7.94
CN1CCN(C(=O)Cn2cc(Nc3nc4c(N5C[C@H]6CC[C@@H](C5)[C@H]6OCc5ccc(C#N)cc5)cccn4n3)cn2)CC1 [Example 128, 4-[[(1S,5R)-3-[2-[[1-[2-(4-methylpiperazin-1-yl)-2-oxo-ethyl]pyrazol-4-yl]amino]-[1,2,4]triazolo[1,5-a]pyridin-8-yl]-3-azabicyclo[3.2.1]octan-8-yl]oxymethyl]benzonitrile] | 9.40 | 9.00
CN1CCN(C(=O)Cn2cc(Nc3nc4c(N5C[C@H]6CC[C@@H](C5)[C@H]6OCc5cccc(C#N)c5)cccn4n3)cn2)CC1 [Example 129, 3-[[(1S,5R)-3-[2-[[1-[2-(4-methylpiperazin-1-yl)-2-oxo-ethyl]pyrazol-4-yl]amino]-[1,2,4]triazolo[1,5-a]pyridin-8-yl]-3-azabicyclo[3.2.1]octan-8-yl]oxymethyl]benzonitrile] | 9.22 | 8.64
CC(C)(C#N)CNC1CCN(C(=O)Cn2cc(Nc3nc4c(N5CC6CCC(C5)N6C(=O)N5CC(C(F)(F)F)C5)cccn4n3)cn2)CC1 [Example 131, 2,2-dimethyl-3-[[1-[2-[4-[[8-[8-[3-(trifluoromethyl)azetidine-1-carbonyl]-3,8-diazabicyclo[3.2.1]octan-3-yl]-[1,2,4]triazolo[1,5-a]pyridin-2-yl]amino]pyrazol-1-yl]acetyl]-4-piperidyl]amino]-propanenitrile] | 8.96 | 9.15
CSc1ccccc1S(=O)(=O)N1C2CCC1CN(c1cccn3nc(Nc4cnn(CC(=O)N5CCN(C)CC5)c4)nc13)C2 [Example 132, 1-(4-methylpiperazin-1-yl)-2-[4-[[8-[8-(2-methylsulfanylphenyl)sulfonyl-3,8-diazabicyclo[3.2.1]octan-3-yl]-[1,2,4]triazolo[1,5-a]pyridin-2-yl]amino]pyrazol-1-yl]ethanone] | 9.40 | 9.40
CN1CCN(C(=O)Cn2cc(Nc3nc4c(N5CC6CCC(C5)N6S(=O)(=O)c5cccc(C(F)(F)F)c5)cccn4n3)cn2)CC1 [Example 133, 1-(4-methylpiperazin-1-yl)-2-[4-[[8-[8-(3-(trifluoromethyl)phenyl]sulfonyl-3,8-diazabicyclo[3.2.1]octan-3-yl]-[1,2,4]triazolo[1,5-a]pyridin-2-yl]amino]pyrazol-1-yl]ethanone] | 9.10 | 8.82
CN1CCN(C(=O)Cn2cc(Nc3nc4c(N5CC6CCC(C5)N6S(=O)(=O)c5ccc(F)cc5)cccn4n3)cn2)CC1 [Example 134, 2-[4-[[8-[8-(4-fluorophenyl)sulfonyl-3,8-diazabicyclo[3.2.1]octan-3-yl]-[1,2,4]triazolo[1,5-a]pyridin-2-yl]amino]pyrazol-1-yl]-1-(4-methylpiperazin-1-yl)ethanone] | 9.40 | 9.30
CN1CCN(C(=O)Cn2cc(Nc3nc4c(N5CC6CCC(C5)N6S(=O)(=O)c5ccc(C(F)(F)F)cc5)cccn4n3)cn2)CC1 [Example 135, 1-(4-methylpiperazin-1-yl)-2-[4-[[8-[8-(4-(trifluoromethyl)phenyl]sulfonyl-3,8-diazabicyclo[3.2.1]octan-3-yl]-[1,2,4]triazolo[1,5-a]pyridin-2-yl]amino]pyrazol-1-yl]ethanone] | 9.70 | 9.40
CN1CCN(C(=O)Cn2cc(Nc3nc4c(N5CC6CCC(C5)N6S(=O)(=O)c5ccc(Cl)cc5F)cccn4n3)cn2)CC1 [Example 136, 2-[4-[[8-[8-(4-chloro-2-fluoro-phenyl)sulfonyl-3,8-diazabicyclo[3.2.1]octan-3-yl]-[1,2,4]triazolo[1,5-a]pyridin-2-yl]amino]pyrazol-1-yl]-1-(4-methylpiperazin-1-yl)ethanone] | 8.70 | 8.21
CN1CCN(C(=O)Cn2cc(Nc3nc4c(N5CC6CCC(C5)N6Cc5ccccc5F)cccn4n3)cn2)CC1 [Example 137, 2-(4-((8-((1R,5 S)-8-(2-fluorobenzyl)-3,8-diazabicyclo[3.2.1]octan-3-yl)-[1,2,4]triazolo[1,5-a]pyridin-2-yl)amino)-1H-pyrazol-1l-yl)-1-(4-methylpiperazin-1-yl)ethan-1-one] | 9.00 | 9.15
Cc1ncc(S(=O)(=O)N2C3CCC2CN(c2cccn4nc(Nc5cnn(CC(=O)N6CCN(C)CC6)c5)nc24)C3)s1 [Example 138, 1-(4-methylpiperazin-1-yl)-2-[4-[[8-[8-(2-methylthiazol-5-yl)sulfonyl-3,8-diazabicyclo[3.2.1]octan-3-yl]-[1,2,4]triazolo[1,5-a]pyridin-2-yl]amino]pyrazol-1-yl]ethanone] | 9.15 | 9.10
Cc1cc(S(=O)(=O)N2C3CCC2CN(c2cccn4nc(Nc5cnn(CC(=O)N6CCN(C)CC6)c5)nc24)C3)sn1 [Example 139, 2-[4-[[8-[8-(3-yl)sulfonyl-3,8-diazabicyclo[3.2.1]octan-3-yl]-[1,2,4]triazolo[1,5-a]pyridin-2-yl]amino]pyrazol-1-yl]-1-(4-methylpiperazin-1-yl)ethanone] | 9.10 | 9.22
CN1CCN(C(=O)Cn2cc(Nc3nc4c(N5CC6CCC(C5)N6C(=O)c5ccccc5C#N)cccn4n3)cn2)CC1 [Example 140, 2-[3-[2-[[1-[2-(4-methylpiperazin-1-yl)-2-oxo-ethyl]pyrazol-4-yl]amino]-[1,2,4]triazolo[1,5-a]pyridin-8-yl]-3,8-diazabicyclo[3.2.1]octane-8-carbonyl]benzonitrile] | 9.40 | 9.10
CN1CCN(C(=O)Cn2cc(Nc3nc4c(N5CC6CCC(C5)N6C(=O)N5CC(O)(C(F)(F)F)C5)cccn4n3)cn2)CC1 [Example 141, 2-[4-[[8-[8-[3-hydroxy-3-(trifluoromethyl)azetidine-1-carbonyl]-3,8-diazabicyclo[3.2.1]octan-3-yl]-[1,2,4]triazolo[1,5-a]pyridin-2-yl]amino]pyrazol-1-yl]-1-(4-methylpiperazin-1-yl)ethanone] | 9.70 | 9.52
